According to US6660770B2, “Pesticidal activity of functionalized alkenes” (North Carolina State University, priority 1999, dated 2003):

What was measured:
Ornithodoros parkeri = assay: Repellent assay for ticks; format: in vivo; settings: ten ticks; for # ticks on acetone: control paper opposite the compound paper; for # ticks on compound: test paper saturated with 60 uL of 15 mg/ml test solution
Method: A repellent assay for ticks is carried out as follows: (1) Prepare 15 mg/ml test solution of test compound in 100% acetone in individual 500 uL bullet tubes. Prepare control solution (1 uL olive oil plus 100 uL 100 acetone). (2) prepare half circle test papers (radious =2.25 cm) from Whatman filter paper (# 2 qualitative). (3) Saturate test papers with 60 uL of 100% acetone, control, or test solution. Test papers are in individual sterile petri dishes during this process. (4) Allow test papers to air dry at room temperature for one hour. (5) Select and place ten ticks into separate sterile glass petri dishes. Allow ticks to acclimate to covered dishes for one hour. (6) Transfer one test paper treated with a test solution and one test paper treated with the control solution to each of separate sterile petri dish bottoms. On control included two test papers treated with acetone. A second control included two test papers treated with the control solution. (7) Place ten ticks in between the two test papers. Place the test arenas in a dark room at room temperature. (8) Record the location of ticks 15 minutes, 1 hour and 2 hours after being placed in the test arenas.

Mosquito larvae = assay: Mosquito larval mortality bioassay; format: in vivo; settings: mosquito larval mortality followed for three days in microtiter plates; compound dissolved in dimethylsulfoxide; Brewer's yeast
Method: Mosquito larval mortality was followed for three days in microtiter plates containing 160 μL sterile water, 1-4 μL of the test compound dissolved in dimethylsulfoxide, and 10 μL of 2% Brewer's yeast. Controls were run under the same conditions without the test compounds. Larval mortality in the controls was 3% for 1-3 μL dimethylsulfoxide, and up to 20% for 4 μL dimethylsulfoxide.

| Compound | # ticks on acetone (Ornithodoros parkeri; 15 minutes) | # ticks on acetone (Ornithodoros parkeri; 1 hour) | # ticks on acetone (Ornithodoros parkeri; 2 hours) | Activity (LD50) (Mosquito larvae) | further results |
| --- | --- | --- | --- | --- | --- |
| O=C(O)CC/C=C/CCC1CCCCC1 [Compound 172, E-7-(Cyclohexyl)hept-4-enoic Acid] | 8 | 10 | 10 | – | # ticks on compound (Ornithodoros parkeri; 15 minutes): 2 |
| CCOC(=O)CC/C=C/CCc1ccc(-c2ccccc2)cc1 [Compound 221, Ethyl E-7-((4-phenyl)phenyl)hept-4-enoate] | 5 | 4 | 8 | – | # ticks on compound (Ornithodoros parkeri; 15 minutes): 5; # ticks on compound (Ornithodoros parkeri; 1 hour): 4; # ticks on compound (Ornithodoros parkeri; 2 hours): 2 |
| COc1ccc(CC/C=C/CCC(=O)O)cc1 [E-7-(4-Methoxyphenyl)hept-4-enoic acid] | – | – | – | 1.28 mM | – |
| O=C(O)CC/C=C/CCc1ccc(O)cc1 [E-7-(4-Hydroxyphenyl)hept-4-enoic acid, E-7-(4-hydroxyphenyl)hept-4-enoic acid] | – | – | – | 0.59 ± 0.03 mM | – |
| O=C(O)CC/C=C/CCc1ccccc1 [E-7-Phenylhept-4-enoic acid] | – | – | – | <0.08 mM | – |
| O=C(O)CCCCCCc1ccccc1 [7-Phenylheptanoic acid] | – | – | – | 0.19 ± 0.02 mM | – |
| CCOC(=O)CC/C=C/CCC1CCCCC1 [Compound 218, Ethyl E-7-(Cyclohexyl)hept-4-enoate] | 10 | 10 | 10 | – | – |
